Reference: US4476122A, “Alkyloximes of 7-amino-thiazolyl-acetamido-cephalosporanic acids” (Roussel Uclaf, priority 1976, dated 1984)
Read-outs that look alike come from different tables or passages of the source.

Tests used:
[1] = tested on: Klebsiella pneumonia 52,145; assay: Experimental infection with Klebsiella pneumonia in mice (D); assay type: in vivo
Protocol: The activity of the products of Examples 19 and 21 was studied on an experimental infection of Klebsiella pneumonia in mice. Groups of 10 male mice weighing 21.5 g received intraperitoneally 0.5 ml of a 24 hour culture in nutritive media of Klebsiella pneumonia 52,145 diluted by 1/1000 with distilled water. The products were administered subcutaneously 1,5 and 24 hours after the injection and the number of dead mice were determined using 10th days.

Escherichia Coli 21 976 = assay: MIC, liquid medium dilution; assay type: cell-based
Protocol: (§1) The method used was a dilution of a liquid medium where a series of tubes received the same quantity of a sterile nutritive media and increasing doses of the test compounds were placed therein. Then each tube was seeded with a bacterial strain and was incubated for 24 or 48 hours at 37° C. in an oven. The increasing inhibition was determined by transillumination to determine the minimum inhibiting concentration (MIC in μg/ml) and the results are reported in the following Tables.

Escherichia Coli 73 316 = assay: MIC, liquid medium dilution; assay type: cell-based
Protocol: as §1

Escherichia Coli 72 806 = assay: MIC, liquid medium dilution; assay type: cell-based
Protocol: as §1

[2] = tested on: Pathogenic white Staphylococcus 69 396; assay: MIC, liquid medium dilution; assay type: cell-based
Protocol: as §1

Escherichia Coli 68 956 = assay: MIC, liquid medium dilution; assay type: cell-based
Protocol: as §1

Escherichia Coli 19 976 = assay: MIC, liquid medium dilution; assay type: cell-based
Protocol: as §1

[3] = tested on: Golden Staphylococcus 68 666; assay: MIC, liquid medium dilution; assay type: cell-based
Protocol: as §1

Escherichia Coli 69 886 = assay: MIC, liquid medium dilution; assay type: cell-based
Protocol: as §1

Escherichia Coli 69 916 = assay: MIC, liquid medium dilution; assay type: cell-based
Protocol: as §1

[4] = tested on: White Staphylococcus 21 976; assay: MIC, liquid medium dilution; assay type: cell-based
Protocol: as §1

Escherichia Coli 68 696 = assay: MIC, liquid medium dilution; assay type: cell-based
Protocol: as §1

[5] = Hygroscopicity of the crystalline salt; assay type: physicochemical; conditions: microcrystalline sodium salt

## CO/N=C(\C(=O)NC1C(=O)N2C(C(=O)O)=C(CSC(C)=O)CSC12)c1csc(N)n1 (stereo not drawn) [Example 21, sodium 3-acetylthiomethyl-7-[{2-(2-amino-4-thiazolyl)-2-methoxyiminoacetyl}amino]-ceph-3-eme-4-carboxylate]
[1]; subcutaneous, 0,1 mg
  Mice alive on the 10th day: 9/10
  Mortality after 4eJ (number of dead of 10): 1
[1]; subcutaneous, 0,05 mg
  Mice alive on the 10th day: 9/10
  Mortality after 73H 15 (number of dead of 10): 1
[1]; subcutaneous, 0,5 mg
  Mice alive on the 10th day: 10/10
[1]; subcutaneous, 0,25 mg
  Mice alive on the 10th day: 10/10
[1]; subcutaneous, 1 mg
  Mice alive on the 10th day: 10/10
Escherichia Coli 21 976; COLI21976, 24 h, read-out: MIC
  MIC: 0.6 µg/mL
Escherichia Coli 21 976; COLI21976, 48 h
  MIC: 0.6 µg/mL
Escherichia Coli 73 316; COLI73316, 24 h
  MIC: 0.2 µg/mL
Escherichia Coli 73 316; COLI73316, 48 h
  MIC: 0.2 µg/mL
Escherichia Coli 72 806; COLI72806, 24 h
  MIC: 1 µg/mL
Escherichia Coli 72 806; COLI72806, 48 h
  MIC: 1 µg/mL
[2]; 24 h
  MIC: 2 µg/mL
[2]; 48 h
  MIC: 2 µg/mL
Escherichia Coli 68 956; COLI68956, 24 h
  MIC: 0.4 µg/mL
Escherichia Coli 68 956; COLI68956, 48 h
  MIC: 0.4 µg/mL
Escherichia Coli 19 976; COLI19976, 24 h, read-out: MIC
  MIC: 0.6 µg/mL
Escherichia Coli 19 976; COLI19976, 48 h
  MIC: 0.6 µg/mL
[3]; 24 h
  MIC: 3 µg/mL
[3]; 48 h
  MIC: 5 µg/mL
Escherichia Coli 69 886; COLI69886, 24 h, read-out: MIC
  MIC: 0.6 µg/mL
Escherichia Coli 69 886; COLI69886, 48 h
  MIC: 1 µg/mL
Escherichia Coli 69 916; COLI69916, 24 h
  MIC: 0.4 µg/mL
Escherichia Coli 69 916; COLI69916, 48 h
  MIC: 0.4 µg/mL
[4]; 24 h
  MIC: 3 µg/mL
[4]; 48 h
  MIC: 5 µg/mL
Escherichia Coli 68 696; COLI68696, 24 h
  MIC: 0.4 µg/mL
Escherichia Coli 68 696; COLI68696, 48 h
  MIC: 0.4 µg/mL

## CO/N=C(\C(=O)NC1C(=O)N2C(C(=O)O)=C(CSC(C)=O)CSC12)c1csc(N)n1 (stereo not drawn) [Example 22, sodium 3-acetylthiomethyl-7-[{2-(2-amino-4-thiazolyl)-2-methoxyiminoacetyl}amino]-ceph-3-eme-4-carboxylate]
[5]
  hygroscopicity: non-hydroscopic
